Results published in patent US20240189244A1 (priority 2021, published 2024).
Where a name gives a salt, the structure may show the parent alone.

Key:
[1] = tested on: renal proximal tubule cells (RPTCs); assay type: cell-based, New Zealand white rabbits; conditions: for effect of inhibitor pretreatment on DEDC(NP) uptake by RPTCs: then 0.1 mg/mL DEDC(NP)s 2 h
Experimental: To assess uptake of DEDC(NP)s, RPTCs were grown in 35-mm tissue culture dishes as described above. DEDC(NP) dispersions were prepared by diluting nanoparticles into media and vortexed immediately prior to experiments. Cells were preincubated for 30 min with varying concentrations of either media or the drugs chlorpromazine hydrochloride (Sigma-Aldrich), nocodazole (Sigma-Aldrich), or simvastatin (Sigma-Aldrich). After pre-incubation, DEDC(NP)s were added at a final concentration of 0.1 mg/mL and incubated for 2 h at 37° C. Cells were washed in triplicate with media to ensure removal of nanoparticles adhered to the outer cell membrane. Cells were then fixed in 10% neutral buffered formalin and nuclei stained with 4′,6-diamidino-2-phenylindole (DAPI). Cells were imaged using the EVOS M5000 Imaging System (ThermoFisher, Waltham, MA) and fluorescence intensity was analyzed by ImageJ (NIH) (n=5 biological replicates).

[2] = tested on: PGC-1α, ND1, NDUFS1 in left ventricle; assay: Immunoblot of mitochondrial biogenesis markers in left ventricle of naive mice; conditions: 24 hours; formoterol 0.3 mg/kg or nanoparticles 0.04 mg/kg formoterol i.v.; vs control
Experimental: (§1) Male C57BL/6 mice were obtained from Charles River (Oakwood, MI) and housed in a room at a constant temperature of 22+2° C. with 12:12 hour light-dark cycles. […] At 24 hours post exposure, mice were euthanized and kidney and heart were harvested. All experiments were approved by The University of Arizona in accordance with the guidelines set forth by the National Institutes of Health Guide for the Care and Use of Laboratory Animals.

C57BL/6 mice = assay: Tail cuff heart rate and blood pressure, naive mice; conditions: 1-2 hours after 0.3 mg/kg formoterol
Experimental: as §1
(§2) The blood pressure and heart rates were measured with a non-invasive tail cuff device (CODA8, Kent Scientific, CT) which uses a volume-pressure method as previously described (Wang Y, Thatcher S E, Cassis L A. Measuring Blood Pressure Using a Noninvasive Tail Cuff Method in Mice. Methods Mol Biol. 2017; 1614:69-73). All measurements were performed on restrained, conscious animals located on a heating pad following the manufacturers protocol. […] At least 10 valid measurements were taken per animal.

physchem = conditions: for solubility at 24 h: 25 °C, thermodynamic from solid
Experimental: For variable pH samples, solution pH was adjusted with either hydrochloric acid or sodium hydroxide solutions (1 M Sigma-Aldrich, St. Louis, MO). Vials were rotated gently for 24 hours at 25° C. as previously described (Aodah A, Pavlik A, Karlage K, Myrdal P B. Preformulation Studies on Piperlongumine. PLOS One. 2016; 11(3):e0151707). Test solutions were filtered using 0.45 μm PVDF or PTFE membrane filters (MilliporeSigma, Burlington, MA) for aqueous and organic solvents respectively.

[3] = tested on: KIM-1, PGC-1α, ETC proteins, tight junction proteins in renal cortex; assay: I/R AKI: renal cortex proteins by immunoblot and KIM-1 immunohistochemistry; assay type: in vivo, C57Bl/6 mice; conditions: 144 hours, daily treatment
Experimental: (§3) Mice were subjected to bilateral renal ischemia for 18-20 minutes or sham surgery as previously described (Funk J A, Schnellmann R G. Persistent disruption of mitochondrial homeostasis after acute kidney injury. Am J Physiol Renal Physiol 2012; 302: F853-864). Mice were allowed to recover without intervention for 24 hours and sorted into groups based on 24-hour serum creatinine levels prior to initiation of dosing. Mice were dosed either daily or at a reduced frequency at 24 hours and 96 hours post-injury (2-day dosing). […] Mice were given VS and FFD via intraperitoneal injection.

I/R injured mice = assay: I/R AKI: cardiovascular function by tail cuff; conditions: 1-2 hours following administration
Experimental: as §3
as §2, with “Mouse” for “The”, “CT)” for “CT) which uses a volume-pressure method”, “Biol” for “Biol.”, “1614: 69-73).” for “1614:69-73).”, “manufacturer's” for “manufacturers”

BTBR WT and ob/ob mice = assay: Diabetic mice: cardiovascular fibrosis, heart weight and survival
Experimental: The efficacy of nanoparticle therapy was determined using BTBR wild type and obese diabetic mice (BTBR T^+ Itpr3^tf/J (WT) and BTBR.Cg-Lep^ob/WiscJ (ob/ob)) (The Jackson Laboratory, Bar Harbor, ME). […] Mice in the vehicle saline groups, Veh(Sal), received daily intraperitoneal injections of normal saline. Immediately following study initiation, 8 mice from both WT and ob/ob Veh(Sal) were euthanized and kidneys extracted for histological analysis. Remaining mice (n=8 per group) were treated for 8 weeks. Following the final week of treatment, mice were sacrificed and kidneys were perfused with normal saline with heparin (10 U/mL). Serum, kidneys and heart were collected for protein and histological analysis.
Cardiovascular fibrosis was measured by quantification of the fraction of trichrome-positive area in both interstitial and perivascular sections of the right ventricular wall. At least 15 sections were quantified per animal. All quantification was completed by an analyst blinded to treatment group.

[4] = tested on: renal proximal tubule cells (RPTCs); conditions: up to a concentration of 1000 nM, previous studies; cited from earlier work
Wistar rats = conditions: cited from earlier work
[5] = tested on: renal proximal tubule cells (RPTCs); assay: Cell viability by resazurin reduction assay; conditions: formoterol 1-1000 nM, 24 hours
Experimental: The RPTCs were cultured on 35-mm tissue culture dishes with 1:1 DMEM:F-12 (without glucose, phenol red, or sodium pyruvate) as media supplemented with 15 mM HEPES buffer, 2.5 mM L-glutamine, 1 μM pyridoxine HCL, 15 mM sodium bicarbonate, and 6 mM lactate. Daily, hydrocortisone (50 nM), selenium (5 ng/mL), human transferrin (5 μg/mL), bovine insulin (10 nM), and L-ascorbic acid-2-phosphate (50 μM) were added to fresh culture medium. Confluent cells were used for all experiments.
Cultured RPTCs were grown on 96-well plates at a cell density of 5×10^3 cells/well for 96 h. […] The treatments were each prepared by dissolving or suspending the powders in culture media. […] Viability was assessed (n=6 technical replicates per biological replicate) by resazurin reduction assay as described previously (41). Detection was assessed using Synergy H1 Multi-Mode Reader (BioTek Instruments, Inc., Winooski, VT) with 544 nm excitation and 590 nm emission wavelengths. The relative viability of the cells was calculated as follows: […]
Detection was measured using Synergy H1 Multi-Mode Reader (BioTek Instruments, Inc., Winooski, VT) with 544 nm excitation and 590 nm emission wavelengths. Five biological replicates were used and viability of the cells was calculated as follows:

[6] = tested on: NDUFB8, SDHB, UQCRC2, ATP5A in renal cortex; assay: Nanoparticle dose selection: renal cortical ETC proteins after 1 week of dosing; conditions: BTBR WT mice
Experimental: The FFD(NP) dosage and frequency was determined using BTBR wild type mice (BTBR T^+ Itpr3^tf/J) (The Jackson Laboratory, Bar Harbor, ME). […] The Veh(Sal) group was given intraperitoneal injections of normal saline daily. The Veh(NP) group was given 60 mg/kg nanoparticles injected via lateral tail vein 2× per week. […] After eight days, mice were weighed, euthanized and kidneys were extracted and snap-frozen in liquid nitrogen.
Protein was extracted from renal cortical tissue using radioimmunoprecipitation assay (RIPA) buffer (50 mM Tris-HCl, 150 mM NaCl, 0.1% SDS, 0.5% sodium deoxycholate and 1% Triton X-100, pH 7.4) with protease inhibitor cocktail (1:100), 1 mM sodium fluoride, and 1 mM sodium orthovanadate (Sigma Aldrich). Equal protein quantities (10 μg) were loaded onto 4-15% SDS-PAGE gels, resolved by gel electrophoresis, and then transferred onto nitrocellulose membranes. Membranes were blocked in 5% milk in tris-buffered saline/tween 20, incubated at a temperature of 4° C. for 18-24 h with primary and secondary antibodies (Abcam). Bound antibodies were visualized using enhanced chemiluminescence (Thermo Scientific, Waltham, MA) and the GE ImageQuant LAS400 Biomolecular Imaging System (GE Healthcare, Marlborough, MA).

[7] = ventricular wall, 8 weeks of treatment

COC(=O)Nc1nc2ccc(C(=O)c3cccs3)cc2[nH]1 [nocodazole]
effect of inhibitor pretreatment on DEDC(NP) uptake by RPTCs ([1]; 30 min preincubation): no observable decline in uptake

COc1ccc(CC(C)NCC(O)c2ccc(O)c(NC=O)c2)cc1 (centres unmarked) [formoterol, Formoterol fumarate dihydrate]
protein expression of mitochondrial biogenesis markers in left ventricle [2]: Elevated protein expression was significant
decrease in diastolic blood pressure (C57BL/6 mice): 19 mmHg
decrease in mean arterial pressure (MAP) (C57BL/6 mice): 16 mmHg
heart rate elevation above the vehicle group (C57BL/6 mice): 198 bpm
heart rate increase vs vehicle (C57BL/6 mice): 65%
solubility at 24 h (physchem; organic solvent or mixture, Formoterol Solubility, ACN): 5 ± 1 µg/mL
solubility at 24 h (physchem; organic solvent or mixture, Formoterol Solubility, Acetone): 63 ± 4 µg/mL
solubility at 24 h (physchem; organic solvent or mixture, Formoterol Solubility, Chloroform): 2 ± 1 µg/mL
solubility at 24 h (physchem; organic solvent or mixture, Formoterol Solubility, DCM): 1 ± 0.4 µg/mL
solubility at 24 h (physchem; water, water solubility): 1160 ± 20 µg/mL
Formoterol Solubility (physchem; Acetone, fumarate dihydrate): 51 ± 4 µg/mL
solubility in non-ionic surfactant solutions (physchem; PVA and Pluronic F127, 0.1% to 5% in aqueous solution): remains unchanged
solubility in water:alcohol mixtures (physchem; ethanol and methanol volume fraction): increased with increasing volume fraction
solubility in water at various pH (physchem; pH adjusted with HCl or NaOH): increasing solubility in highly basic or acidic conditions
claudin-5 expression [3]: 50 % of sham
decrease in mean arterial pressure (MAP) (I/R injured mice): 18%
heart rate increase from VS (I/R injured mice): 1.5 fold
focal myocardial fibrosis / collagen accumulation (BTBR WT and ob/ob mice; 8 weeks of treatment): significant focal
probability of survival to 12 weeks of age (BTBR WT and ob/ob mice; BTBR WT mice): 38%
heart weight normalized to respective Veh(Sal) controls (BTBR WT and ob/ob mice; BTBR WT or BTBR ob/ob): 1.3 fold
probability of surviving to 12 weeks of age (BTBR WT and ob/ob mice; BTBR ob/ob mice): 13%
diffuse interstitial trichrome positive area elevation (BTBR WT and ob/ob mice; [7]): 1.6 fold
perivascular trichrome positive area elevation (BTBR WT and ob/ob mice; [7]): 3.7 fold
toxicity to RPTCs [4]: non-toxic
increase in heart rate from baseline (Wistar rats; immediately following systemic dosing): 100-150 bpm
mean arterial pressure (MAP) (Wistar rats; intravenous administration, similar doses): significant decrease in mean arterial pressure
lowest dose at which heart rate effect was seen (Wistar rats; rat, in vivo): 3 µg/kg
persistence of heart rate increase (Wistar rats; rat, in vivo): up to 4 hours
viability of proximal tubule cells [5]: not significantly decreased
weight gain [6]: no differences in weight gain amongst groups

CN(C)CCCN1c2ccccc2Sc2ccc(Cl)cc21 [chlorpromazine, chlorpromazine hydrochloride]
effect of inhibitor pretreatment on DEDC(NP) uptake by RPTCs ([1]; 30 min preincubation): no observable decline in uptake

CCN1C(=CC=CC=Cc2sc3ccccc3[n+]2CC)Sc2ccccc21.[I-] [DEDC, 3,3′-diethylthiadicarbocyanine iodide]
intracellular fluorescence in RPTCs (uptake) ([1]; 0.1 mg/mL DEDC(NP)s or equivalent free dye, 2 h): minimal

CCC(C)(C)C(=O)O[C@H]1C[C@@H](C)C=C2C=C[C@H](C)[C@H](CC[C@@H]3C[C@@H](O)CC(=O)O3)[C@H]21 [simvastatin]
inhibitor concentration at which decrease in nanoparticle uptake starts ([1]; 30 min preincubation): 1 µM
inhibitor concentration giving complete reduction in intracellular fluorescence intensity ([1]; 30 min preincubation): 100 µM
